Laboratory results taken from patent US12281118B2, “Nitrogen-containing fused heterocyclic SHP2 inhibitor compound, preparation method, and use” (SHANGHAI RINGENE BIOPHARMA CO., LTD., priority 2018, dated 2025).

What was measured:
CYP2C8 = CYP2C8 (Homo sapiens (Human), UniProt P10632); assay: biochemical; assay type: in vitro ADME
NCI-H 508 (lung cancer) = assay: Cell proliferation inhibition, MTT; assay type: cell-based; details: Homo sapiens, NCI-H508
Procedure: (§1) Incubating cells such as KYSE520 (oesophageal cancer cells), H358 (lung cancer cells), Colo-205 (colorectal cancer cells), MiaPaca-2 (pancreas cancer cells), MOLM 13 (leukemia cells), NCI—H 1666 (lung cancer cells), NCI—H 508 (lung cancer), KATO III (gastric cancer), HEK 293A (normal cells), H3255 (lung cancer), H1975 (lung cancer), PC-9 (lung cancer), A549 (lung cancer), SNU16 (gastric cancer), and H1299 (lung cancer) in a 96-well plate at 100 µl/well and 20,000 cells/mL, and supplementing 10% fetal bovine serum and 1% penicillin/streptomycin sulfate. With 0.5% dimethyl sulfoxide as a blank control, treating the cells in a solution of the test compounds under 3× dilution at an initial concentration of 10 μM in eight gradients, and incubating the plate in an incubator with 5% CO2 for a certain period of time. At the end of the incubation, adding 10 μL of an MTT stock solution (5 mg/mL) to each well. Incubating the plates at 37° C. for 4 hours, and then removing the culture medium. Adding the dimethyl sulfoxide (100 μL) to each well, and then shaking well. Measuring the absorbance of a formazan product at 570 nm on a Thermo Scientific Varioskan Flash multi-mode reader. Fitting dose-response data to a three-parameter nonlinear regression model using GraphPad Prism 6.0 software to obtain IC50 values.

H358 (lung cancer cells) = assay: Cell proliferation inhibition, MTT; assay type: cell-based; details: Homo sapiens, NCI-H358
Procedure: as §1

SNU16 (gastric cancer) = assay: Cell proliferation inhibition, MTT; assay type: cell-based; details: Homo sapiens; SNU 16
Procedure: as §1

[1] = system: KYSE520 (oesophageal cancer cells); assay: Cell proliferation inhibition, MTT; assay type: cell-based; details: Homo sapiens, KYSE-520
Procedure: as §1

[2] = system: KATO III (gastric cancer); assay: Cell proliferation inhibition, MTT; assay type: cell-based; details: Homo sapiens
Procedure: as §1

[3] = system: NCI-H1666 (lung cancer cells); assay: Cell proliferation inhibition, MTT; assay type: cell-based; details: Homo sapiens
Procedure: as §1

SHP2 enzyme = SHP2 enzyme (Homo sapiens (Human), UniProt Q06124); assay: Inhibitory activity against SHP2 enzyme (Caliper conversion rate); assay type: biochemical; details: read-out: SHP2 Enzyme Inhibition IC50 Value
Procedure: (1) Preparing 1×Reaction Buffer according to the BPS Biosciences' Instructions for Use of the SHP2 enzyme. (2) Preparing a compound concentration gradient: Test the test compound at 10 μM under 3× dilution for 10 concentrations, diluting to a 100% dimethyl sulfoxide solution at a 100× final concentration in a 384-well plate, and diluting the compound with Precision 4× for 10 concentrations. Transferring 250 nL of the compound at the 100× final concentration to a target plate OptiPlate-384F using a dispenser Echo 550. […] (3) Preparing the activation peptide solution at a 5× final concentration with the 1×Reaction Buffer, adding 5 μL of the solution to a reaction plate, respectively, and centrifuging at 1000 rpm for 1 min. (4) Preparing an enzyme solution at a 2.5× final concentration with the 1×Reaction Buffer, adding 10 μL of the solution to the reaction plate, respectively, centrifuging at 1000 rpm for 1 min, and incubating at room temperature for 60 min. (5) Preparing a substrate peptide solution at a 2.5× final concentration with the 1×Reaction Buffer, centrifuging at 1000 rpm for 1 min, and incubating at room temperature for 30 min. (6) Adding 30 μL of stop test solution to stop the reaction, centrifuging at 1000 rpm for […], and mixing well by shaking. (7) Reading the conversion rate with a Caliper EZ Reader. (7) Data analysis:
Wherein: Conversion %/_sample is the reading of a conversion rate of a sample; Conversion %_min: mean of negative control wells, which represents the reading of a conversion rate in absence of enzyme activity wells; Conversion %_max: mean of a ratio of positive control wells, which represents the reading of a conversion rate in absence of compound inhibition wells.

[4] = system: MC38 colorectal cancer xenografts; assay: Growth inhibition of MC38 colorectal cancer xenografts in C57BL-6 mice; assay type: in vivo; details: 1 mg/kg, orally, once daily
Source text: Experimental method: 1) Culturing MC38 cells in a culture medium containing 10% fetal bovine serum. […] 2) Subcutaneously inoculating […] tumor cells at the right back of a mouse, and resuspending the cells in PBS and matrigel (1:1); observing tumor growth regularly, and randomizing mice for administration based on tumor size and mouse body weight when tumors grow to a mean volume of ˜50 mm^3-60 mm^3. 3) Defining the day of tumor cell inoculation as Day 0. Prior to the start of dosing, weighing all animals and measuring the tumor volume with a vernier caliper. 3) Administering orally compound of examples (prepared with water for injection containing 1% Tween80 to a desired concentration for use) at a given dose, intraperitoneally injecting an anti-PD-L1 antibody twice a week, for two consecutive weeks, and giving an equal amount of solvent animals in a solvent control group. Measuring diameters of the xenograft twice a week throughout the experiment, and weighing the mice were at the same time.
The calculation formula of tumor volume (TV) is: TV=½×a×b^2, wherein a and b represent length and width, respectively. The relative tumor volume (RTV) is calculated based on the measured results using the formula: RTV=Vt/V0, wherein V0 is the tumor volume measured at the time of dosing in separate cages (i.e., Day 0) and Vt is the tumor volume at each measurement. […]

SHP2 enzyme, sequence (Q06124 whole entry): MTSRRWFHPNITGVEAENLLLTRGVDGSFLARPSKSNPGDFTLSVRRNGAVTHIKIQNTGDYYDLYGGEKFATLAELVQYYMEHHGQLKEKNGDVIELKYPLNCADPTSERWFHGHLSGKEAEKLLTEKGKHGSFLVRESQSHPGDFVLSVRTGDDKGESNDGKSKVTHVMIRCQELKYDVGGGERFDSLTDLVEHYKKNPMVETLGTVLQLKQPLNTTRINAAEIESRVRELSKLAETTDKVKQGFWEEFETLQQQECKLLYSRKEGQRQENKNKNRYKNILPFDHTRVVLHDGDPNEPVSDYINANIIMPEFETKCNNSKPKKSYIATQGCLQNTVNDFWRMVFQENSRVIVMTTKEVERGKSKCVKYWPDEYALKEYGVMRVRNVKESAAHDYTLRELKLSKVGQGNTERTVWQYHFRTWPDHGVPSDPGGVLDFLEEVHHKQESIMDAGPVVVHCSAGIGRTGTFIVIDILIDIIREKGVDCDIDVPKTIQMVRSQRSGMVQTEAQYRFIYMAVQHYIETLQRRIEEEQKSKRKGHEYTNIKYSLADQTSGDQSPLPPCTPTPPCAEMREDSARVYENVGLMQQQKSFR
CYP2C8, sequence (P10632 whole entry): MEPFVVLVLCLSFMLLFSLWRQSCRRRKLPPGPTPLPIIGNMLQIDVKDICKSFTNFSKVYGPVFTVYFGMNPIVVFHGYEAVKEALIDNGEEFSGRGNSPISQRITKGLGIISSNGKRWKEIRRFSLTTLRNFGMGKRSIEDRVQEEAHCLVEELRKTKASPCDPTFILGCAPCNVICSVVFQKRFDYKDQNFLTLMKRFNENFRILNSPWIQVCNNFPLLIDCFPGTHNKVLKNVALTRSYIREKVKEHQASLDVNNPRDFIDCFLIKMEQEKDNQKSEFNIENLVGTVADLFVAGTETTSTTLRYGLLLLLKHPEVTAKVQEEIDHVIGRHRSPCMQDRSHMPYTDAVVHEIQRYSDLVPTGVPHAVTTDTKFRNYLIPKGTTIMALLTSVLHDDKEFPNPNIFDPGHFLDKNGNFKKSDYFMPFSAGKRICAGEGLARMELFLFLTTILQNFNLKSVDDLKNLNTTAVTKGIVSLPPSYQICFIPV

Row | SMILES | IC50 (CYP2C8) [nM] | IC50 (NCI-H 508 (lung cancer)) [nM] | IC50 (H358 (lung cancer cells)) [nM] | IC50 (SNU16 (gastric cancer)) [nM] | IC50 [1] [nM] | IC50 [2] [nM] | IC50 [3] [nM] | IC50 (SHP2 enzyme) [nM] | T/C [4] [%]
1 | Nc1nccc(Sc2c(N)nc(N3CCC4(CC3)Cc3ccccc3[C@H]4N)n3ccnc23)c1Cl [Example 4, (S)-1′-(7-amino-8-((2-amino-3-chloropyridin-4-yl)thio)imidazo [1,2-c]pyrimidin-5-yl)-1,3-dihydrospiro [indene-2,4′-piperidine]-1-amine] | > 25000 | < 100 | < 100 | < 1000 | < 100 | < 1000 | < 100 | 1.9 | 
2 | Cc1nc(N2CCC3(CC2)Cc2ccccc2[C@H]3N)n2ccnc2c1Sc1ccnc(N)c1Cl [Example 1, (S)-1′-(8-((2-amino-3-chloropyridin-4-yl)thio)-7-methylimidazo [1,2-c]pyrimidin-5-yl)-1,3-dihydrospiro [indene-2,4′-piperidine]-1-amine] | > 25000 | < 100 | < 100 | < 1000 | < 100 | < 1000 | < 100 | 4.4 | 60
